# Reference: publication PMC2610419 (Chemical biology & drug design, 2006)
# Positions count from the first letter of the chain named. “Also recorded” adds a separate entry of the source. Square brackets hold non-standard residues; d marks the D form. Ends that are not written are not given here. pS = N[C@@H](COP(=O)(O)O)C(=O)O
# Columns and labels:
# Design in all cases: species or system murine
# [1] = biological target: T1, Abl SH2 domain (wild type) (Mus musculus, UniProt P00520); experiment: HSQC NMR titration ligand-binding assay, wild type Abl SH2 domain; conditions: for Affinity in high salt: 135 mM KCl, HSQC titration, ± standard error
# T1 sequence (P00520 120-220): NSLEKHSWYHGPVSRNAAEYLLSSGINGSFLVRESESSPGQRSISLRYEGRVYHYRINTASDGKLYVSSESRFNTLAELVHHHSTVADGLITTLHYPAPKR
# Abl SH2 domain Arg45Gln = biological target: T2, Abl SH2 domain Arg45Gln (Mus musculus, UniProt P00520, R161Q); experiment: HSQC NMR titration ligand-binding assay, Arg45Gln mutant; conditions: read-out: Affinity in high salt, 135 mM KCl
# T2 sequence (P00520 120-220 R161Q): T1 sequence (P00520 120-220) with R42Q
# Abl SH2 domain Arg59Gln = biological target: T3, Abl SH2 domain Arg59Gln (Mus musculus, UniProt P00520, R175Q); experiment: HSQC NMR titration ligand-binding assay, Arg59Gln mutant; conditions: for Affinity in high salt: 135 mM KCl; for Kd: read-out: Affinity in high salt, 135 mM KCl
# T3 sequence (P00520 120-220 R175Q): T1 sequence (P00520 120-220) with R56Q
# Abl SH2 domain Arg36Lys = biological target: T4, Abl SH2 domain Arg36Lys (Mus musculus, UniProt P00520, R152K); experiment: HSQC NMR titration ligand-binding assay, Arg36Lys mutant; conditions: 135 mM KCl
# T4 sequence (P00520 120-220 R152K): T1 sequence (P00520 120-220) with R33K
Molecule,Affinity in high salt [1],Kd (Abl SH2 domain Arg45Gln),Affinity in high salt (Abl SH2 domain Arg59Gln),Kd (Abl SH2 domain Arg59Gln),Affinity in high salt (Abl SH2 domain Arg36Lys),also measured
"CCCCCCCC(=O)OC[C@H](COP(=O)(O)O[C@@H]1[C@H](O)[C@H](O)[C@@H](OP(=O)(O)O)[C@H](OP(=O)(O)O)[C@H]1O)OC(=O)CCCCCCC [diC8-PtdIns(4,5)P2, dioctanoyl (C8) PtdIns(4,5)P2]",–,–,–,–,–,"stronger affinity of the C8 over C4 form of PtdIns(4,5)P2 ([1]; ratio of affinities): 1.6 fold"
phosphatidylserine,Not detectable,–,–,–,–,Affinity in high salt ([1]; listed as PtdSer): very weak
phosphatidic acid [Phosphatidicacid],very weak,–,–,–,–,–
"CCCC(=O)OC[C@H](COP(=O)(O)O[C@@H]1[C@H](O)[C@H](O)[C@@H](OP(=O)(O)O)[C@H](OP(=O)(O)O)[C@H]1O)OC(=O)CCC [diC4-PtdIns(4,5)P2, dibutanoyl (C4) PtdIns(4,5)P2]",–,900 ± 60 µM,almost completely disrupted,> 10000 µM,Not detectable,"Affinity in high salt (Abl SH2 domain Arg36Lys; listed as PtdIns(4,5)P2): abolished"
GQSSRV[pS]PSPTTY [BCR pSer354 peptide],Not detectable,–,–,–,–,–
"N[C@@H](Cc1ccc(OP(=O)(O)O)cc1)C(=O)O [pTyr, phosphotyrosine]",–,390 ± 13 µM,reduced to millimolar levels,2500 ± 200 µM,abolished; also recorded: Not detectable,–
